{
  "source": "patent US20080124310A1",
  "about": "“Bead based receptor biology” (priority 2006, published 2008)",
  "type_in_all_cases": "cell-based, murine",
  "key": {"[1]": {"system": "RAW 264.7 macrophages", "assay": "Phagocytic receptor assay: engulfment of IgG or ligand coated particles by RAW macrophages (foam cell model), confocal", "excerpt": "FIG. 25, panels A and B, illustrate respectfully a method for measurement of phagocytic receptors and a method for measuring transfection or delivery of nucleic acids and simultaneous measurement of particle engulfment using a single cell multi label confocal microscope experiment. A direct or surrogate measurement of receptor function or receptor pathway activity must be made in order establish the role of potential therapeutic target proteins in receptor function. IgG, complement, low density lipoprotein (LDL), oxidatively modified LDL (OX-LDL). Acetyl-LDL, apolipoproteins, lipoproteins, lipopolysaccharide (LPS), scavenger and other receptor functions can be measured by the accumulation of particles. The particles may themselves be comprised in part of fluorescent materials or can be directly stained with fluorescent or other colored materials or can be bound by proteins that directly or indirectly permit the attachment of fluorescent, chemiluminescent or other reporter molecules. The beads may be stained in live cells or cells fixed with formalin or paraformaldehyde or organic solvents such as alcohol and acids or by other means. The beads can be stained both before or after internalization with or without the permeabilization of the cells by detergents or organic solvents. The beads may be cells that can be lysed and imaged directly. The cells may be counter stained for the presence of specific proteins using antibodies or may express fluorescent protein constructs or contain fluorescent silencing RNA or DNA constructs or biopolymer modulating agents or drugs (FIG. 25).\nWe created a foam cell model and quantitative confocal assays for micro particle engulfment by macrophages. The engulfment of particles by macrophages and the generation of free radicals by leukocytes are the key physiological actions that lead to the generation of foam cells that are the center of atherosclerotic plaques. We made a cellular model system of foam cells or activated leukocytes and examine the effects of moderate levels of alcohol over time on the accumulation of particles and generation of free radicals at the site of particle accumulation compared to statins and propranolol. The model systems will consist of RAW macrophages that engulf hydrophobic polystyrene microparticles with or without coating by ligands or mixtures of ligands such as those found in cellular growth media, or free fluorescently labeled DI-LDL, OX-LDL, Acetyl LDL or other. Live cell confocal microscopy was used to quantify the effects of ethanol, compared to lovastatin and propranolol, on particle engulfment.\nExternal particles were stained green with secondary anti rabbit FITC and then cells were permeablized and all particles stained red with secondary anti rabbit CY3. Thus engulfed particles appear red while external particles appear yellow. Beads within the cells carrying only the red signal (engulfed) and not also the green signal {red+green=yellow} (outside) were quantified for accumulation assays using both total fluorescence in the green channel and by counting individual beads in three fields on three independent cover slips for each concentration.\n(§1) RAW 264.7 macrophages were cultured in alpha MEM with 5% fetal calf serum as described. The effects of lovastatin on IgG and LDL coated micro-particle engulfment at 0, 50 nM, 100 nM, 500 nM, 1 mM and higher was tested. The accumulation of free DI-LDL was quantified directly by its red fluorescence. External particles were stained green with secondary anti rabbit FITC and then cells were permeablized and all particles stained red with secondary anti rabbit CY3. Thus engulfed particles appear red while external particles appear yellow."}, "[2]": {"system": "RAW 264.7 macrophages", "assay": "Uptake of free fluorescent DI-LDL or OX-LDL, red fluorescence confocal microscopy", "details": "594 nm", "description": "as §1, with “yellow. Beads within the cells carrying only the red signal (engulfed) and not also the green signal {red+green=yellow} (outside) were quantified for accumulation assays using both total fluorescence in the green channel and by counting individual beads in three fields on three independent cover slips for each concentration.” for “yellow.”"}, "[3]": {"system": "Thrombospondin", "assay": "Surface expression of thrombospondin on macrophages", "excerpt": "Thrombospondin is a protein that is known to bind apolipoprotein and lipid receptors expressed on the surface of cells including the scavenger receptor class B multi ligand receptor CD36 associated with atherosclerosis and Alzheimer's."}, "[4]": {"system": "RAW macrophages", "assay": "Biochemical measurement of protein levels in fractions of drug treated RAW macrophages", "excerpt": "A now well established side effect of ethanol is to prevent heart attack. Thus the common effects of statins, propranolol, and ethanol must be closely linked to the central mechanism that is the most important pharmacological target of heart attack and thus atherosclerosis prevention. It remains possible that the preventative effect of statins results from their effect to inhibit particle engulfment and foam cell formation by macrophages leading to atherosclerotic plaques. We created a foam cell model and quantitative confocal assays for micro particle engulfment by macrophages. The engulfment of particles by macrophages and the generation of free radicals by leukocytes are the key physiological actions that lead to the generation of foam cells that are the center of atherosclerotic plaques. We have made a cellular model system of leukocytes or activated leukocytes or leukocytes treated over time to examine the effects drugs and biopolymer modification materials over time on the activation of receptors at the site of modified or ligand coated particles. The drugs used in this system to examine the kinetics of receptor function at modified particles may result in changes to the cell including changes in gene expression at the level of DNA transcription, RNA production, accumulation or post-transcription processing, mRNA production accumulation or expression all of which may also alter protein expression. We examined the use of these model systems with and without beads as a system to screen the effects of drugs that are known to prevent heart attack and stroke in model of leukocyte cells within atherosclerotic plaques. We observe that drugs that effect receptor associated signaling may also alter gene, RNA or ultimately protein expression in cells resulting in changes in protein levels. Proteins that change levels in response to a drug may be themselves drug target proteins.\nThe drugs used in the leukocyte model system to examine the kinetics of receptor function at modified particles may result in changes to the cell including changes in gene expression at the level of DNA transcription, RNA production, accumulation or post-transcription processing, mRNA production accumulation or expression all of which may also alter protein expression. We examined the use of these model systems with and without beads as a system to screen the effects of drugs that are known to effect receptor response at or near the cell surface or interior of the cells. We observe that drugs that effect receptor associated signaling may also alter gene, RNA or ultimately protein expression in cells resulting in changes in protein levels. Proteins that change levels in response to a drug may be themselves drug target proteins. […] The RAW leukocyte model foam cells system alone or in combination with the bead based biology system can be used to characterize the effects of receptor or cellular activation in terms of second messengers such as lipid and protein phosphorylation with respect to drug treatment or time in the cytosol of leukocytes (FIG. 67)."}},
  "data": [
    {"smiles": "CC[C@H](C)C(=O)O[C@H]1C[C@@H](C)C=C2C=C[C@H](C)[C@H](CC[C@@H]3C[C@@H](O)CC(=O)O3)[C@H]21", "note": "[lovastatin]", "values": [
      {"measurement": "engulfment / accumulation of IgG or ligand coated particles", "setting": "[1]; RAW macrophages, confocal", "result": "reduced the capacity of RAW macrophages to engulf particles"},
      {"measurement": "dose that directly prevents engulfment of particles", "setting": "[1]; cultured macrophage leukocytes", "result": "≤ 100", "unit": "nM"},
      {"measurement": "accumulation of free cholesterol (free fluorescent DI-LDL or OX-LDL)", "setting": "[2]", "result": "no effect"},
      {"measurement": "expression of Thrombospondin on the cell surface", "setting": "[3]", "result": "lowered the expression of Thrombospondin"},
      {"measurement": "levels of cytosolic proteins (FIG. 57)", "setting": "[4]; cytosol fraction", "result": "alter levels of proteins in the membranes"},
      {"measurement": "levels of proteins in the extracellular matrix (FIG. 55)", "setting": "[4]; matrix fraction", "result": "alter levels of proteins in the extracellular matrix"},
      {"measurement": "levels of proteins in the membranes (FIG. 54)", "setting": "[4]; membrane fraction", "result": "alter levels of proteins in the membranes"},
      {"measurement": "levels of proteins in the secretions (FIG. 56)", "setting": "[4]; secreted proteins", "result": "alter levels of proteins in the secretions"}
    ]}
  ]
}
